Source: patent US20210330611A1, “THERAPY FOR NEUROLOGICAL DISEASES/DISORDERS” (priority 2020, published 2021)
Structures can show the parent of a compound that is named as a salt. Where two headings read alike, the source gives them in different places.

Assays:
primary rat microglia [1] = experiment: Cell toxicity (dead cells, size <150 μm2) in LPS assay
[2] = system: LPS-induced microglia activation; experiment: Image-based assay of LPS-induced microglia activation (HTS and dose response); type: cell-based, rat; details: for inhibition at 10 µM: Rattus norvegicus, Microglia, read-out: LPS % inhibition
[3] = system: fibrin-induced microglia activation; experiment: Image-based assay of fibrin-induced microglia activation (HTS and dose response); type: cell-based, rat; details: for inhibition at 10 µM: Rattus norvegicus, Microglia, read-out: Fibrin % inhibition
[4] = system: fibrin- and LPS-induced microglia activation; experiment: cells; type: cell-based, rat
primary rat microglia [5] = experiment: Cell toxicity (dead cells, size <150 μm2) in coated fibrin (cFib) assay;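 note: share of dead cells sized under 150 µm2 at 10 µM in fibrin-stimulated microglia HTS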
[6] = primary HTS, 10 μM, LPS assay, dead cells size <150 μm2
[7] = primary HTS, 10 μM, LPS-stimulated primary microglia
[8] = primary HTS, 10 μM, fibrin-stimulated primary microglia
[9] = primary HTS, 10 μM, fibrin assay, dead cells size <150 μm2
[10] = primary microglia HTS, LPS stimulation, decreased size (<150 μm^2) as marker of toxicity
[11] = 48 h, primary microglia HTS, LPS stimulation, increased cell size (>800 μm^2) as marker of activation
[12] = primary microglia HTS, fibrin stimulation, increased cell size (>800 μm^2) as marker of activation
[13] = quadrant by fibrin and LPS inhibition in HTS of 1907 compounds
[14] = primary microglia HTS, fibrin stimulation, decreased size (<150 μm^2) as marker of toxicity
[15] = primary microglia HTS, 10 μM, LPS assay, cell size <150 μm^2 as marker of toxicity
[16] = primary microglia HTS, 10 μM, LPS-stimulated, cell size >800 μm^2 as marker of activation
[17] = primary microglia HTS, 10 μM, fibrin-stimulated, cell size >800 μm^2 as marker of activation
[18] = HTS of 1907 compounds, quadrant by fibrin and LPS inhibition
[19] = primary microglia HTS, 10 μM, fibrin assay, cell size <150 μm^2 as marker of toxicity
[20] = primary microglia HTS, LPS stimulation, toxicity = cell size <150 μm2
[21] = 48 h, primary microglia HTS, LPS stimulation, activation = cell size >800 μm2
[22] = primary microglia HTS, fibrin stimulation, activation = cell size >800 μm2
[23] = primary microglia HTS, fibrin stimulation, toxicity = cell size <150 μm2

CC(=O)OCC1=C(C(=O)[O-])N2C(=O)[C@@H](NC(=O)CCCC(N)C(=O)O)[C@H]2SC1.[Na+] (stereo partly shown) [Cephalosporin C Sodium]
LPS % cell toxicity (primary rat microglia [1]; [6]): 0% | LPS % inhibition [2, 7]: 8% | Fibrin % inhibition [3, 8]: −34% | Quadrant (FIG. 5b) ([4]; primary HTS, 10 μM): Q4 | Fibrin % cell toxicity (primary rat microglia [5]; [9]): 1%

Cc1cc(C)cc(OCC2CNC(=O)O2)c1 (stereo not shown) [Metaxalone]
LPS % cell toxicity (primary rat microglia [1]; [10]): 0% | inhibition at 10 µM [2, 11]: 6% | inhibition at 10 µM [3, 12]: 13% | Quadrant (FIG. 5b) [4, 13]: Q4 | Fibrin % cell toxicity (primary rat microglia [5]; [14]): 1%

CCCCCCCCCCCCCCCC[N+](C)(C)CCN(Cc1ccc(OC)cc1)c1ncccn1 [Thonzonium Bromide]
LPS % cell toxicity (primary rat microglia [1]; [15]): 1% | inhibition at 10 µM [2, 16]: 19% | inhibition at 10 µM [3, 17]: -1% | Quadrant (FIG. 5b) [4, 18]: Q4 | Fibrin % cell toxicity (primary rat microglia [5]; [19]): 0%

CSc1ccc2c(c1)C(N1CCN(C)CC1)Cc1ccccc1S2 (stereo not shown)
LPS % cell toxicity (primary rat microglia [1]; [10]): 0% | LPS % inhibition ([2]; primary microglia HTS, LPS stimulation, increased cell size (>800 μm^2) as marker of activation): −5% | Fibrin % inhibition [3, 12]: 11% | Quadrant (FIG. 5b) [4, 13]: Q4 | Fibrin % cell toxicity (primary rat microglia [5]; [14]): 1%

CCOC(=O)CC(SP(=S)(OC)OC)C(=O)OCC (stereo not shown) [Malathion]
LPS % cell toxicity (primary rat microglia [1]; [10]): 0% | inhibition at 10 µM [2, 11]: 8% | inhibition at 10 µM [3, 12]: -8% | Quadrant (FIG. 5b) [4, 13]: Q4 | Fibrin % cell toxicity (primary rat microglia [5]; [14]): 0%

Cc1cc(C(C#N)c2ccc(Cl)cc2)c(Cl)cc1NC(=O)c1cc(I)cc(I)c1O (stereo not shown) [Closantel]
LPS % cell toxicity (primary rat microglia [1]; [6]): 0% | inhibition at 10 µM [2, 7]: 5% | inhibition at 10 µM [3, 8]: -9% | Quadrant (FIG. 5b) ([4]; primary HTS, 10 μM): Q4 | Fibrin % cell toxicity (primary rat microglia [5]; [9]): 0%

CCN(CC)CCNC(C(=O)OCCC(C)C)c1ccccc1 (stereo not shown) [Camylofine Dihydrochloride]
LPS % cell toxicity (primary rat microglia [1]; [6]): 1% | inhibition at 10 µM [2, 7]: 15% | inhibition at 10 µM [3, 8]: -27% | Quadrant (FIG. 5b) ([4]; primary HTS, 10 μM): Q4 | Fibrin % cell toxicity (primary rat microglia [5]; [9]): 1%

O=C(COc1ccc(Cl)cc1)N1CCN(Cc2ccc3c(c2)OCO3)CC1 [Fipexide Hydrochloride]
LPS % cell toxicity (primary rat microglia [1]; [20]): 0% | inhibition at 10 µM [2, 21]: 11% | inhibition at 10 µM [3, 22]: -15% | Quadrant (FIG. 5b) [4, 13]: Q4 | Fibrin % cell toxicity (primary rat microglia [5]; [23]): 0%

Cc1nnc(NS(=O)(=O)c2ccc(N)cc2)s1 [Sulfamethizole]
LPS % cell toxicity (primary rat microglia [1]; [15]): 0% | inhibition at 10 µM [2, 16]: 16% | inhibition at 10 µM [3, 17]: -3% | Quadrant (FIG. 5b) [4, 18]: Q4 | Fibrin % cell toxicity (primary rat microglia [5]; [19]): 1%

CCC(NC(C)C)C(O)c1ccc(O)c(O)c1 (stereo not shown) [Isoetarine]
LPS % cell toxicity (primary rat microglia [1]; [20]): 0% | inhibition at 10 µM [2, 21]: 23% | inhibition at 10 µM [3, 22]: 21% | Quadrant (FIG. 5b) [4, 13]: Q4 | Fibrin % cell toxicity (primary rat microglia [5]; [23]): 1%

Cc1cc(CC(=O)O)n(C)c1C(=O)c1ccc(Cl)cc1 [Zomepirac]
LPS % cell toxicity (primary rat microglia [1]; [15]): 0% | inhibition at 10 µM [2, 16]: 10% | inhibition at 10 µM [3, 17]: -4% | Quadrant (FIG. 5b) [4, 18]: Q4 | Fibrin % cell toxicity (primary rat microglia [5]; [19]): 1%

COc1ccc2cc(CCC(C)=O)ccc2c1 [Nabumetone]
LPS % cell toxicity (primary rat microglia [1]; [10]): 0% | inhibition at 10 µM [2, 11]: 15% | inhibition at 10 µM [3, 12]: -13% | Quadrant (FIG. 5b) [4, 13]: Q4 | Fibrin % cell toxicity (primary rat microglia [5]; [14]): 1%

c1ccc2c(c1)CCCC2C1=NCCN1 (stereo not shown) [Tetryzoline]
LPS % cell toxicity (primary rat microglia [1]; [15]): 0% | inhibition at 10 µM [2, 16]: 16% | inhibition at 10 µM [3, 17]: -29% | Quadrant (FIG. 5b) [4, 18]: Q4 | Fibrin % cell toxicity (primary rat microglia [5]; [19]): 0%

Cn1nnnc1SCC1=C(C(=O)O)N2C(=O)[C@@H](NC(=O)[C@H](OC=O)c3ccccc3)[C@H]2SC1 [Cefamandole Nafate]
LPS % cell toxicity (primary rat microglia [1]; [6]): 0% | inhibition at 10 µM [2, 7]: 12% | inhibition at 10 µM [3, 8]: -3% | Quadrant (FIG. 5b) ([4]; primary HTS, 10 μM): Q4 | Fibrin % cell toxicity (primary rat microglia [5]; [9]): 0%
